Test results published in PubChem BioAssay AID1919007 (Molecular Pharmacology Branch, DTP, NCI, 2023).
pIC50: −log10 of the molar value.

System: A498 complex spheroids with HUVEC/MSC, growth
Experiment: Anticancer human tumor A498 cell line growth inhibition [AhR];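 note: seven day exposure starting three days after spheroid seeding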;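 for viability, T/C: luminescence signal used as a surrogate for viable cells; luminescence viability scaled so 100% equals DMSO vehicle wells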
Details: for pIC50: curve of first compound; for viability, T/C: stronger effect = lower value
Outline: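 Spheroids combined tumor cells with HUVEC endothelial cells and human MSCs as stroma. AhR antagonists were paired with standard or investigational drugs, each dosed in half-log steps down from near clinical Cmax, or from 10 microM where Cmax was unknown.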

[1] = second compound 0.1 µM, first compound 0.0316 µM
[2] = second compound 0.1 µM, first compound 0.1 µM
[3] = second compound 0.1 µM, first compound 0.316 µM
[4] = second compound 0.1 µM, first compound 1 µM
[5] = second compound 0.1 µM, first compound 3.16 µM
[6] = second compound 0.1 µM, first compound 10 µM
[7] = second compound 0.316 µM, first compound 0.0316 µM
[8] = second compound 0.316 µM, first compound 0.1 µM
[9] = second compound 0.316 µM, first compound 0.316 µM
[10] = second compound 0.316 µM, first compound 1 µM
[11] = second compound 0.316 µM, first compound 3.16 µM
[12] = second compound 0.316 µM, first compound 10 µM
[13] = second compound 1 µM, first compound 0.0316 µM
[14] = second compound 1 µM, first compound 0.1 µM
[15] = second compound 1 µM, first compound 0.316 µM
[16] = second compound 1 µM, first compound 1 µM
[17] = second compound 1 µM, first compound 3.16 µM
[18] = second compound 1 µM, first compound 10 µM
[19] = second compound 3.16 µM, first compound 0.0316 µM
[20] = second compound 3.16 µM, first compound 0.1 µM
[21] = second compound 3.16 µM, first compound 0.316 µM
[22] = second compound 3.16 µM, first compound 1 µM
[23] = second compound 3.16 µM, first compound 3.16 µM
[24] = second compound 3.16 µM, first compound 10 µM
[25] = second compound 10 µM, first compound 0.0316 µM
[26] = second compound 10 µM, first compound 0.1 µM
[27] = second compound 10 µM, first compound 0.316 µM
[28] = second compound 10 µM, first compound 1 µM
[29] = second compound 10 µM, first compound 3.16 µM
[30] = second compound 10 µM, first compound 10 µM

Row | SMILES | pIC50 (second compound 0.1 µM) | pIC50 (second compound 0.316 µM) | pIC50 (second compound 1 µM) | pIC50 (second compound 3.16 µM) | pIC50 (second compound 10 µM) | viability, T/C [1] [%] | viability, T/C [2] [%] | viability, T/C [3] [%] | viability, T/C [4] [%] | viability, T/C [5] [%] | viability, T/C [6] [%] | viability, T/C [7] [%] | viability, T/C [8] [%] | viability, T/C [9] [%] | viability, T/C [10] [%] | viability, T/C [11] [%] | viability, T/C [12] [%] | viability, T/C [13] [%] | viability, T/C [14] [%] | viability, T/C [15] [%] | other results
1 | CC(C)c1c(-c2ccccc2)nc2c(C#N)c[nH]n2c1=O + Cc1cncc(-c2nc(NCCc3c[nH]c4ccccc34)c3ncn(C(C)C)c3n2)c1 | < 5.00 | < 5.00 | < 5.00 | < 5.00 | > 7.50 | 89.4 | 92.7 | 98.5 | 104 | 100 | 94.8 | 103 | 104 | 95.6 | 91 | 96.9 | 98.5 | 92.6 | 95.8 | 95.2 | viability, T/C [16]: 88.8%; viability, T/C [17]: 91.6%; viability, T/C [18]: 91.2%; viability, T/C [19]: 50.7%; viability, T/C [20]: 49.1%; viability, T/C [21]: 52.8%; viability, T/C [22]: 54.9%; viability, T/C [23]: 49.2%; viability, T/C [24]: 52.7%; viability, T/C [25]: 3%; viability, T/C [26]: 4.01%; viability, T/C [27]: 4.28%; viability, T/C [28]: 3.84%; viability, T/C [29]: 3.64%; viability, T/C [30]: 4.87%
2 | COc1cc(C2c3cc4c(cc3C(OC3OC5COC(C)OC5C(O)C3O)C3COC(=O)C23)OCO4)cc(OC)c1O (stereo not given) + Cc1cncc(-c2nc(NCCc3c[nH]c4ccccc34)c3ncn(C(C)C)c3n2)c1 | < 5.00 | < 5.00 | < 5.00 | 5.44 | > 7.50 | 79.4 | 73 | 73.3 | 68.1 | 62.4 | 52.2 | 83.7 | 76.6 | 79.9 | 69 | 59.9 | 59 | 79.8 | 74 | 74.4 | viability, T/C [16]: 60.5%; viability, T/C [17]: 56.3%; viability, T/C [18]: 50.1%; viability, T/C [19]: 61.4%; viability, T/C [20]: 63.6%; viability, T/C [21]: 66.9%; viability, T/C [22]: 56.8%; viability, T/C [23]: 47.1%; viability, T/C [24]: 43.2%; viability, T/C [25]: 3.97%; viability, T/C [26]: 4.03%; viability, T/C [27]: 4.95%; viability, T/C [28]: 4.99%; viability, T/C [29]: 5.98%; viability, T/C [30]: 6.6%
3 | NS(=O)(=O)OCC1CC(n2ccc3c(NC4CCc5ccccc54)ncnc32)CC1O (stereo not given) + CC(CO)NC(=O)c1cc(-c2ccc(Cl)cc2)nn(-c2cnn(C)c2)c1=O | 6.57 | 6.58 | 6.51 | 6.61 | 6.71 | 94.8 | 86 | 42.4 | 30 | 22.4 | 17.7 | 90.9 | 81.8 | 42.9 | 27.2 | 23.3 | 17.6 | 92 | 82.4 | 47.5 | viability, T/C [16]: 30.8%; viability, T/C [17]: 23.4%; viability, T/C [18]: 19.8%; viability, T/C [19]: 92.5%; viability, T/C [20]: 73.6%; viability, T/C [21]: 41.5%; viability, T/C [22]: 29.3%; viability, T/C [23]: 20.6%; viability, T/C [24]: 18.3%; viability, T/C [25]: 79%; viability, T/C [26]: 64.1%; viability, T/C [27]: 39.5%; viability, T/C [28]: 26%; viability, T/C [29]: 20.9%; viability, T/C [30]: 17.6%
